According to PubChem BioAssay AID1963443 (Molecular Pharmacology Branch, DTP, NCI, 2024):

System: MDA-MB-231 complex spheroids, growth inhibition
Experiment: Anticancer human tumor MDA-MB-231 cell line growth inhibition [Asc];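 further: spheroids exposed to compounds for 7 days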
Conditions: for IC50: curve of first compound; for viability, T/C: stronger effect = lower value; active means viability on the fitted dose curve at most 10% of control; inactive means the rest
Outline: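 Stromal components (HUVEC and hMSC) are co-assembled with the cancer cells into multicellular spheroids. Drugs are then added singly or paired, at concentrations falling by half-log increments from a clinically achievable maximum, capped at 10 microM without known Cmax.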

[1] = second compound 0.1 µM, first compound 0.0316 µM
[2] = second compound 0.1 µM, first compound 0.1 µM
[3] = second compound 0.1 µM, first compound 0.316 µM
[4] = second compound 0.1 µM, first compound 1 µM
[5] = second compound 0.1 µM, first compound 3.16 µM
[6] = second compound 0.1 µM, first compound 10 µM
[7] = second compound 0.316 µM, first compound 0.0316 µM
[8] = second compound 0.316 µM, first compound 0.1 µM
[9] = second compound 0.316 µM, first compound 0.316 µM
[10] = second compound 0.316 µM, first compound 1 µM
[11] = second compound 0.316 µM, first compound 3.16 µM
[12] = second compound 0.316 µM, first compound 10 µM
[13] = second compound 1 µM, first compound 0.0316 µM
[14] = second compound 1 µM, first compound 0.1 µM
[15] = second compound 1 µM, first compound 0.316 µM
[16] = second compound 1 µM, first compound 1 µM
[17] = second compound 1 µM, first compound 3.16 µM
[18] = second compound 1 µM, first compound 10 µM
[19] = second compound 3.16 µM, first compound 0.0316 µM
[20] = second compound 3.16 µM, first compound 0.1 µM
[21] = second compound 10 µM, first compound 0.0316 µM
[22] = second compound 10 µM, first compound 0.1 µM

C=C(F)C(=O)N1CCN(c2nc(OCC3CCCN3C)nc3c2CCN(c2cccc4cccc(Cl)c24)C3)CC1CC#N (stereo not given) + CNC(C)C(=O)NC1CN(S(=O)(=O)c2cccc(S(=O)(=O)N3CCC4CCC(C(=O)NC(c5ccccc5)c5ccccc5)N4C(=O)C(NC(=O)C(C)NC)C3)c2)CCC2CCC(C(=O)NC(c3ccccc3)c3ccccc3)N2C1=O
< 31.6 nM: IC50 (second compound 0.01 µM) | IC50 (second compound 0.0316 µM) | IC50 (second compound 0.1 µM) | IC50 (second compound 0.316 µM) | IC50 (second compound 1 µM)
active: viability, T/C (second compound 0.01 µM, first compound 0.0316 µM) 1.99% | viability, T/C (second compound 0.01 µM, first compound 0.1 µM) 2.81% | viability, T/C (second compound 0.01 µM, first compound 0.316 µM) 1.5% | viability, T/C (second compound 0.01 µM, first compound 1 µM) 1.02% | viability, T/C (second compound 0.01 µM, first compound 3.16 µM) 0.39% | viability, T/C (second compound 0.01 µM, first compound 10 µM) 0.09% | viability, T/C (second compound 0.0316 µM, first compound 0.0316 µM) 1.12% | viability, T/C (second compound 0.0316 µM, first compound 0.1 µM) 2.63% | viability, T/C (second compound 0.0316 µM, first compound 0.316 µM) 1.75% | viability, T/C (second compound 0.0316 µM, first compound 1 µM) 1.07% | viability, T/C (second compound 0.0316 µM, first compound 3.16 µM) 0.75% | viability, T/C (second compound 0.0316 µM, first compound 10 µM) 0.93% | viability, T/C [1] 0.94% | viability, T/C [2] 1.79% | viability, T/C [3] 1.68% | viability, T/C [4] 0.86% | viability, T/C [5] 0.38% | viability, T/C [6] 0.08% | viability, T/C [7] 0.86% | viability, T/C [8] 1.12% | viability, T/C [9] 1.54% | viability, T/C [10] 1.37% | viability, T/C [11] 0.42% | viability, T/C [12] 0.08% | viability, T/C [13] 1.4% | viability, T/C [14] 1.56% | viability, T/C [15] 1.18% | viability, T/C [16] 1.49% | viability, T/C [17] 0.43% | viability, T/C [18] 0.98%

CCN1C(C(=O)NC23CCC(C(=O)O)(CC2)CC3)C(c2cccc(Cl)c2F)C2(C(=O)Nc3cc(Cl)ccc32)C12CCCCC2 (stereo not given) + CNC(C)C(=O)NC1CN(S(=O)(=O)c2cccc(S(=O)(=O)N3CCC4CCC(C(=O)NC(c5ccccc5)c5ccccc5)N4C(=O)C(NC(=O)C(C)NC)C3)c2)CCC2CCC(C(=O)NC(c3ccccc3)c3ccccc3)N2C1=O
< 9.49 nM: IC50 (second compound 0.01 µM) | IC50 (second compound 0.0316 µM) | IC50 (second compound 0.1 µM) | IC50 (second compound 0.316 µM) | IC50 (second compound 1 µM)
active: viability, T/C (second compound 0.01 µM, first compound 0.00949 µM) 2.02% | viability, T/C (second compound 0.01 µM, first compound 0.03 µM) 2.75% | viability, T/C (second compound 0.01 µM, first compound 0.0949 µM) 1.79% | viability, T/C (second compound 0.01 µM, first compound 0.3 µM) 1.37% | viability, T/C (second compound 0.01 µM, first compound 0.949 µM) 2.73% | viability, T/C (second compound 0.01 µM, first compound 3 µM) 2.05% | viability, T/C (second compound 0.0316 µM, first compound 0.00949 µM) 1.54% | viability, T/C (second compound 0.0316 µM, first compound 0.03 µM) 2.84% | viability, T/C (second compound 0.0316 µM, first compound 0.0949 µM) 1.94% | viability, T/C (second compound 0.0316 µM, first compound 0.3 µM) 0.92% | viability, T/C (second compound 0.0316 µM, first compound 0.949 µM) 1.76% | viability, T/C (second compound 0.0316 µM, first compound 3 µM) 1.43% | viability, T/C (second compound 0.1 µM, first compound 0.00949 µM) 1.27% | viability, T/C (second compound 0.1 µM, first compound 0.03 µM) 1.6% | viability, T/C (second compound 0.1 µM, first compound 0.0949 µM) 1.85% | viability, T/C (second compound 0.1 µM, first compound 0.3 µM) 0.87% | viability, T/C (second compound 0.1 µM, first compound 0.949 µM) 1.78% | viability, T/C (second compound 0.1 µM, first compound 3 µM) 2.03% | viability, T/C (second compound 0.316 µM, first compound 0.00949 µM) 0.92% | viability, T/C (second compound 0.316 µM, first compound 0.03 µM) 2.14% | viability, T/C (second compound 0.316 µM, first compound 0.0949 µM) 1.07% | viability, T/C (second compound 0.316 µM, first compound 0.3 µM) 0.78% | viability, T/C (second compound 0.316 µM, first compound 0.949 µM) 1.14% | viability, T/C (second compound 0.316 µM, first compound 3 µM) 1.24% | viability, T/C (second compound 1 µM, first compound 0.00949 µM) 1.09% | viability, T/C (second compound 1 µM, first compound 0.03 µM) 0.9% | viability, T/C (second compound 1 µM, first compound 0.0949 µM) 0.88% | viability, T/C (second compound 1 µM, first compound 0.3 µM) 2.3% | viability, T/C (second compound 1 µM, first compound 0.949 µM) 0.81% | viability, T/C (second compound 1 µM, first compound 3 µM) 0.71%

Cn1ncnc1[C@H]1c2n[nH]c(=O)c3cc(F)cc(c23)N[C@@H]1c1ccc(F)cc1 + Cc1c(S(C)(=O)=O)c(-c2cc(F)cc(N3CCN(c4ccc(NS(=O)(=O)c5ccc(NC(CCN6CCC(C(=O)OCCCP(=O)(O)O)CC6)CSc6ccccc6)c(S(=O)(=O)C(F)(F)F)c5)cc4)CC3)c2)c(-c2ccc(Cl)cc2)n1C(C)C
> 100 nM: IC50 (second compound 0.1 µM) | IC50 (second compound 0.316 µM) | IC50 (second compound 1 µM) | IC50 (second compound 3.16 µM) | IC50 (second compound 10 µM)
inactive: viability, T/C (second compound 0.1 µM, first compound 0.000316 µM) 104% | viability, T/C (second compound 0.1 µM, first compound 0.001 µM) 95.4% | viability, T/C (second compound 0.1 µM, first compound 0.00316 µM) 107% | viability, T/C (second compound 0.1 µM, first compound 0.01 µM) 92.3% | viability, T/C [1] 87.8% | viability, T/C [2] 87.2% | viability, T/C (second compound 0.316 µM, first compound 0.000316 µM) 103% | viability, T/C (second compound 0.316 µM, first compound 0.001 µM) 105% | viability, T/C (second compound 0.316 µM, first compound 0.00316 µM) 95.9% | viability, T/C (second compound 0.316 µM, first compound 0.01 µM) 90.6% | viability, T/C [7] 80.7% | viability, T/C [8] 81% | viability, T/C (second compound 1 µM, first compound 0.000316 µM) 101% | viability, T/C (second compound 1 µM, first compound 0.001 µM) 107% | viability, T/C (second compound 1 µM, first compound 0.00316 µM) 105% | viability, T/C (second compound 1 µM, first compound 0.01 µM) 89.5% | viability, T/C [13] 82.3% | viability, T/C [14] 75.7% | viability, T/C (second compound 3.16 µM, first compound 0.000316 µM) 101% | viability, T/C (second compound 3.16 µM, first compound 0.001 µM) 95.5% | viability, T/C (second compound 3.16 µM, first compound 0.00316 µM) 82.2% | viability, T/C (second compound 3.16 µM, first compound 0.01 µM) 83.7% | viability, T/C [19] 68.7% | viability, T/C [20] 63.1% | viability, T/C (second compound 10 µM, first compound 0.000316 µM) 115% | viability, T/C (second compound 10 µM, first compound 0.001 µM) 108% | viability, T/C (second compound 10 µM, first compound 0.00316 µM) 98.5% | viability, T/C (second compound 10 µM, first compound 0.01 µM) 91.3% | viability, T/C [21] 74.4% | viability, T/C [22] 65%

O=C(c1cc(Cc2n[nH]c(=O)c3ccccc23)ccc1F)N1CCN(C(=O)C2CC2)CC1 + Cc1c(S(C)(=O)=O)c(-c2cc(F)cc(N3CCN(c4ccc(NS(=O)(=O)c5ccc(NC(CCN6CCC(C(=O)OCCCP(=O)(O)O)CC6)CSc6ccccc6)c(S(=O)(=O)C(F)(F)F)c5)cc4)CC3)c2)c(-c2ccc(Cl)cc2)n1C(C)C
inactive: viability, T/C [1] 96.8% | viability, T/C [2] 98.9% | viability, T/C [3] 94.9% | viability, T/C [4] 85.7% | viability, T/C [5] 78.3% | viability, T/C [6] 68.9% | viability, T/C [7] 91.7% | viability, T/C [8] 96.2% | viability, T/C [9] 100% | viability, T/C [10] 87.2% | viability, T/C [11] 87% | viability, T/C [12] 65.6% | viability, T/C [13] 97.7% | viability, T/C [14] 95.3% | viability, T/C [15] 88.8% | viability, T/C [16] 85% | viability, T/C [17] 77.5% | viability, T/C [18] 54.5% | viability, T/C [19] 86.8% | viability, T/C [20] 93.8% | viability, T/C (second compound 3.16 µM, first compound 0.316 µM) 89.3% | viability, T/C (second compound 3.16 µM, first compound 1 µM) 83.9% | viability, T/C (second compound 3.16 µM, first compound 3.16 µM) 72.2% | viability, T/C (second compound 3.16 µM, first compound 10 µM) 42.3% | viability, T/C [21] 102% | viability, T/C [22] 101% | viability, T/C (second compound 10 µM, first compound 0.316 µM) 96.8% | viability, T/C (second compound 10 µM, first compound 1 µM) 91% | viability, T/C (second compound 10 µM, first compound 3.16 µM) 75.7% | viability, T/C (second compound 10 µM, first compound 10 µM) 36.9%
7460 nM: IC50 (second compound 3.16 µM)
> 10000 nM: IC50 (second compound 0.1 µM) | IC50 (second compound 0.316 µM) | IC50 (second compound 1 µM)
6790 nM: IC50 (second compound 10 µM)
